Laboratory results reported in US10086045B2, “Methods of treatment using stem cell mobilizers” (THE JOHNS HOPKINS UNIVERSITY, priority 2010, dated 2018).

How the values were obtained:
CD34+ cells / HSCs = conditions: healthy volunteers; cited from earlier work
[1] = system: CD34+ stem cells in peripheral blood; conditions: pigs
Method: The dosage of plerixafor used in swine transplants was based on the experiments in rats. It is possible that the effective dosage of plerixafor will differ among species. The efficacy of plerixafor was tested in non-transplanted pigs and blood cell count and flow cytometric analysis were used to measure CD34^+ stem cells in peripheral blood.

CXCR4 receptor = conditions: mutated receptor (not named); cited from earlier work
[2] = system: human immunodeficiency virus (HIV); conditions: cited from earlier work
[3] = system: CD34+ HSCs / peripheral white blood cells; test: HSC mobilization in rats, flow cytometric analysis of peripheral blood; assay type: in vivo; conditions: for peripheral CD34+ absolute count / total lymphocyte count: single dose; for average total WBC: single sc dose (plerixafor 2 mg/kg, G-CSF 300 μg/kg), n=3
Method: Rats (n=3 per treatment group) were administered a single dose of plerixafor (2 mg/kg), G-CSF (300 μg/kg) or both. In FIG. 2A, peripheral total white blood cell (WBC) count, total lymphocytes, and CD34^+ cells were measured in […] by FACS analysis at 1 hr and 6 hrs after injection. […] See Mozobil (plerixafor injection) Product Monograph 2009 (Genzyme Corporation, Cambridge, Mass.).
Mobilization of HSCs. For HSC mobilization, plerixafor and G-CSF were administered by subcutaneous injection at weight-based doses consistent with those that have proven effective in human clinical trials or as has been used previously by the present inventors (plerixafor, 2 mg/kg/dose; G-CSF 300 μg/kg/dose). Plerixafor and G-CSF were administered 12-hours following CCl4 injection, in treatment groups comprised of eight to ten animals. Control treatment groups were administered an injection with an equivalent volume of saline.
Flow Cytometric Analysis of Peripheral Blood. Following HSC mobilization, animals were sacrificed at either one or six hours post treatment and blood was collected. Leukocyte suspensions (1×10^6) of peripheral blood were analyzed for CD34, Thy-1 and c-Kit expression. Nonspecific antibody binding was blocked with mouse and donkey serum (Sigma) for 30 minutes. The cells were incubated with Alexa Fluor 647 conjugated mouse anti-rat CD34 (1:10) (Santa Cruz Biotechnology), fluorescein isothiocyanate (FITC)-conjugated mouse anti-rat CD90 (Thy-1, 1:100) (BD Pharmingen), and rabbit anti-rat c-Kit (1:100) (Santa Cruz Biotechnology) for 45 minutes at 4° C., followed by phycoerythrin (PE)-conjugated donkey anti-rabbit IgG (1:200) (eBioscience) for 30 minutes at 4° C. The CD34, Thy-1 and c-Kit positive cells were counted by flow cytometry using CELLQuest software (Becton-Dickinson).

C57BL/6 mice = test: Rodent model of acute liver failure: CCl4 dose finding (survival, serum transaminases); assay type: in vivo
Method: FIG. 1A-1C describes mortality and hepatic injury after injection of carbon tetrachloride (CCl4). FIG. 1A is a graph showing percent survival over four days among groups (n=10) of mice administered intraperitoneal injections of CCL4 at doses of 2 ml/kg (solid line), 3 ml/kg (dashed line), 4 ml/kg (diamond markers), or 4.5 ml/kg (circle markers). FIG. 1B is a graph displaying peak liver function test (LF) results, specifically, serum aspartate transaminase (AST) (dark bars) and alanine transaminase (ALT) (light bars) levels in mice (n=2) 24 hrs and 96 hrs after intraperitoneal injection of CCL4 at 4 ml/kg compared to baseline levels in uninjected animals (0 hrs).
Rodent models of Acute Liver Failure.
The large majority of animals in this group were transiently ill but rapidly regained vigor. […] A dose of 4 ml/kg would result in about 60% to 100% mortality among the animals over the course of three to seven days. Slight adjustments in the dose (i.e., 4.5 ml/kg) at this level would have obvious effects on mortality with all animals succumbing within 24-48 hours.
A dose of 4 ml/kg was eventually selected for the final model. Mortality with this dose was typically about 80% around five days and was preceded by a significant elevation in serum transaminases. AST and ALT levels peaked at approximately 5,000 on day one to two after injury (FIG. 1B).

[4] = CCl4 4 ml/kg, day one to two after injury

In the case of `c1cc(CN2CCCNCCNCCCNCC2)ccc1CN1CCCNCCNCCCNCC1` [plerixafor, 1,1′-[1,4-phenylenebis(methylene)]bis-1,4,8,11-tetraazacyclo-tetradecane], the “mobilization of HSCs to the periphery” value (CD34+ cells / HSCs) is given as “massive mobilization”, the “time of peak CD34+ cell levels” value ([1]; after subcutaneous injection) is given as 3 h and the “difference in number of CD34+ cells between 1 mg/kg and 2 mg/kg” value ([1]; at 2, 3 and 6 hours after injection) is given as “no significant difference”. For the same molecule, the “absolute number of CD34+ cells per ml blood” value ([1]; subcutaneous injection, time-dependent) was “significantly increased”, the “affinity of mutated receptor relative to affinity in CXCR4” value (CXCR4 receptor) was ≤ 10 fold and the “increase in affinity after introduction of Glu at VII:06 and removal of Lys at VII:02” value (CXCR4 receptor) was 1000 fold. The “anti-HIV efficacy in vivo” value [2] was “not an effective anti-HIV agent”, the “peripheral CD34+ absolute count” value ([3]; one hour) was 333 cells/ml and the total lymphocyte count ([3]; one hour) was 4,400. The “peripheral CD34+ absolute count” value ([3]; six hours) was 135 cells/ml, the total lymphocyte count ([3]; six hours) was 4,800 and the “average total WBC” value ([3]; 1 hour) was 6,100. For the same molecule, the “average total WBC” value ([3]; 6 hours) was 7,300.

In the case of `ClC(Cl)(Cl)Cl` [CCL4, carbon tetrachloride], the “mortalities per ten animals” value (C57BL/6 mice; CCl4 2 ml/kg intraperitoneal, within first one to two days) is reported as “one or two”, the mortality (C57BL/6 mice; CCl4 4 ml/kg, around five days) is reported as “about 80%” and the “peak serum ALT level” value (C57BL/6 mice; [4]) is reported as “approximately 5,000”. The “peak serum AST level” value (C57BL/6 mice; [4]) was “approximately 5,000” and the “time within which all animals succumbed” value (C57BL/6 mice; CCl4 4.5 ml/kg) was 24 to 48 h.

B1: G-CSF: granulocyte colony stimulating factor, stem cell mobilizer (protein, UniProt P09919 31-207, looked up)
Granulocyte …: TPLGPASSLPQSFLLKCLEQVRKIQGDGAALQEKLVSECATYKLCHPEELVLLGHSLGIPWAPLSSCPSQALQLAGCLSQLHSGLFLYQGLLQALEGISPELGPTLDTLQLDVADFATTIWQQMEELGMAPALQPTQGAMPAFASAFQRRAGGVLVASHLQSFLEVSYRVLRHLAQP
With B1 the “peripheral CD34+ absolute count” value ([3]; one hour) was 216 cells/ml, the total lymphocyte count ([3]; one hour) was 2,000 and the “peripheral CD34+ absolute count” value ([3]; six hours) was 238 cells/ml. The total lymphocyte count ([3]; six hours) was 4,100, the “average total WBC” value ([3]; 1 hour) was 3,300 and the “average total WBC” value ([3]; 6 hours) was 7,800.
